Reference: publication PMC6774072, “Azologization and repurposing of a hetero-stilbene-based kinase inhibitor: towards the design of photoswitchable sirtuin inhibitors” (Beilstein Journal of Organic Chemistry, 2019)
Read-outs that look alike come from different tables or passages of the source.

What was measured:
Sirt1 = target: T1, Sirt1 (Homo sapiens, UniProt Q96EB6); test: fluorescence-based deacetylase assay with Z-Lys(acetyl)-AMC (ZMAL) substrate; assay type: biochemical; conditions: @ 100 µM
T1 construct: Expression and purification of Sirt1_133-747; made in house
T1 sequence (Q96EB6 133-747): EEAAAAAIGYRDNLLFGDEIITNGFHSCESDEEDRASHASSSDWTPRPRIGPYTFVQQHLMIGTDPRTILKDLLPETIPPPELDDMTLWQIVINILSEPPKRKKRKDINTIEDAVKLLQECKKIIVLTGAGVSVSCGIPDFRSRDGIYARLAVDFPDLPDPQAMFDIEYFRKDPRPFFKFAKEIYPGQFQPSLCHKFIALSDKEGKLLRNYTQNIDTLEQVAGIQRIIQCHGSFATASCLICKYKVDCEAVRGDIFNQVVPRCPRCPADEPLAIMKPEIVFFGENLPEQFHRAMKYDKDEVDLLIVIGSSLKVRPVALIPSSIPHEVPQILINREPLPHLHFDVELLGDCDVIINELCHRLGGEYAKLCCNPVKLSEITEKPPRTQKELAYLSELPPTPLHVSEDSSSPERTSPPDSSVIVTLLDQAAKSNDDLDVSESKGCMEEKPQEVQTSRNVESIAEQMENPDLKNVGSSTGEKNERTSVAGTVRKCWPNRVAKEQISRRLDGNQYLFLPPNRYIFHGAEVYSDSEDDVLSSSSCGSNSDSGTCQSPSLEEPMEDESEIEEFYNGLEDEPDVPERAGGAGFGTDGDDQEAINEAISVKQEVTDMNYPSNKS
Method: (§1) The influence on deacetylase activity of three human sirtuin isoforms (Sirt1–3) was determined in a fluorescence-based assay, using Z-Lys(acetyl)-AMC (ZMAL) as a substrate. Compared to the lead structure 2a, all compounds except 2e–h show increased inhibitory activity against Sirt2 (Table 1). […] Moreover, a slight increase in selectivity for Sirt2 and Sirt3 over Sirt1 could be observed for 2c, 4a and 4b. […] Though not photoswitchable, compounds 4a and 4b were synthesized to test the influence of a rigid conformation around the C=C double bond on sirtuin inhibition. […] A recently developed fluorescence polarization (FP)-based assay enables mapping of ligand binding to this specific binding site. For 2a an interaction with the selectivity pocket was already implied in the same work. Additionally performed docking studies proposed a binding mode in which 2a mimics the nicotinamide residue of NAD^+, whereas aromatic amino acid residues of the selectivity pocket stabilize the dimethylphenol ring. As photoisomerization in stilbenes and azo dyes is accompanied by a perpendicular twist of the phenyl ring towards the former molecular plane, we assumed that this conformational change should provoke a differential binding situation at least for the dimethylphenol residue in 2a. Unfortunately, binding of 2b and c could not be localised in the vicinity of the selectivity pocket of Sirt2, so that the binding pose remains unclear.
(§2) The photoswitchable diazeno compound 11 was subjected to biological evaluation to test the effect of photoisomerization on the inhibitory activity. The enzyme assay mixture containing 11 was exposed to 5 minutes of 365 nm radiation and compared with the results of a non-irradiated measurement. […] Unfortunately, 365 nm radiation turned out to have only minor effects on the IC50 values of 11 (Table 3).
(§3) Cloning, expression and purification of recombinant proteins: Expression and purification of Sirt1_133-747, Sirt2_56−356, and Sirt3_118−395 was carried out as described previously. Identity and purity were verified by SDS-PAGE [65]. Protein concentration was determined by the Bradford assay.
(§4) Bioassay: The inhibitory effect of compounds 2a–h, 4a/b, 8a and 11 on Sirt1–3 was detected via a previously reported fluorescence based assay. The synthetic substrate Z-Lys(acetyl)-AMC (ZMAL) is deacetylated by sirtuins, followed by tryptic digestion and thereby release of […], leading to a fluorescent readout. Inhibition was determined by comparing percentage substrate conversion to a DMSO control after subtraction of the blank fluorescence signal. All compounds were tested at 100 µM, 50 µM and 10 µM, respectively. […] IC50 values were calculated with OriginPro 9.0 G using a non-linear regression to fit the dose response curve. An enzyme-free blank control and a 100% conversion control using AMC instead of ZMAL were measured as well. Inhibition measurements were performed in biological duplicates for all compounds.

Sirt3 = target: T2, Sirt3 (Homo sapiens, UniProt Q9NTG7); test: as above; assay type: biochemical; conditions: read-out: Sirt3 inhibition IC50
T2 construct: Sirt3_118−395; made in house
T2 sequence (Q9NTG7 118-395): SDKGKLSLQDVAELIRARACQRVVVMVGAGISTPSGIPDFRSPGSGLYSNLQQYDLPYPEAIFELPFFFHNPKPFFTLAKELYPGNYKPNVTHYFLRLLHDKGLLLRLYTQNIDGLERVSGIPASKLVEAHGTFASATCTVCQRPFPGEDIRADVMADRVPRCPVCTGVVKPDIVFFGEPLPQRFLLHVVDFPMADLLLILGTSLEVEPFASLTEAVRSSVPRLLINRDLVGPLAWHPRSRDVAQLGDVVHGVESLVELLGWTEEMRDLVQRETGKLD
Method: as §1, §2, §3, §4

[1] = photostationary state (PSS) after 5 minutes of 365 nm irradiation
[2] = thermal equilibrium (∆), non-irradiated

- inhibition at 100 µM (Sirt1; [1]): 19%
- inhibition at 100 µM (Sirt1; [2]): 35%
- IC50 (Sirt3; [1]): 29.9 ± 2.11 µM
- IC50 (Sirt3; [2]): 27.5 ± 3.42 µM
- melting point: 212.3 °C
SMILES: NC(=O)c1cncc(N=Nc2ccc(F)cc2)c1 [Compound 11, 5-[(4-Fluorophenyl)diazenyl]nicotinamide]
